According to US11505548B2, “Heterocyclic compounds and their use for treatment of helminthic infections and diseases” (Celgene Corporation, priority 2019, dated 2022):
pIC50: −log10 of the molar value.

These molecules were tested on microfilariae of Dirofilaria immitis (assay: Dirofilaria immitis, Microfilaria (DiMF) Assay). Details: read-out: D. immitis activity level (IC50 or MED).
Type: cell-based
Procedure: Heartworm Screen Dirofilaria immitis (D. immitis)
Dirofilaria immitis, Microfilaria (DiMF) Assay.
Compounds were dissolved and serially diluted in DMSO. Aliquots were spotted to the empty wells of assay plates. Media and microfilariae of Dirofilaria immitis were added to each well to dilute the test compounds to the desired concentrations. Assay plates were incubated for approximately 72 hours, and the larvae in each well were observed microscopically for drug effect. Microfilariae in each well were assessed subjectively for survival or paralysis, and results were reported as Minimum Effective Dose (MED).
Active and selective (DiL4 vs. DiMF potency) example compounds were subsequently evaluated in heartworm positive dog studies to correlate the in vitro selectivity profile with in vivo effects on circulating microfilariae.

SMILES	pIC50
Cc1cccnc1Nc1nc(-c2cc(C(F)(F)F)c(OC3CC3)cn2)ns1 [Compound 102, 3-(5-cyclo-propoxy-4-(trifluoromethyl)pyridin-2-yl)-N-(3-methyl-pyridin-2-yl)-1,2,4-thiadiazol-5-amine]	6.30 to 6.70
CC(C)Oc1cnc(-c2nsc(Nc3ncccc3C(C)C)n2)cc1C#N [Compound 201, 5-isopropoxy-2-(5-(3-isopropyl-pyridin-2-ylamino)-1,2,4-thiadiazol-3-yl)isonicotino-nitrile]	> 6.70
Cc1cccnc1Nc1nc(-c2ccc(O[C@@H]3CCN(C4CC4)C[C@H]3F)cn2)ns1 [Compound 91, 3-(5-((3R,4R)-1-cyclopropyl-3-fluoro-piperidin-4-yloxy)pyridin-2-yl)-N-(3-methylpyridin-2-yl)-1,2,4-thiadiazol-5-amine]	5.30 to 6.30
COc1ccnc(-c2nsc(Nc3ccc(C(F)(F)F)cn3)n2)c1 [Compound 176, 3-(4-methoxy-pyridin-2-yl)-N-(5-(trifluoromethyl)pyridin-2-yl)-1,2,4-thiadiazol-5-amine]	> 6.70
CC(=O)N1CCC(Oc2ccc(-c3nsc(Nc4ncccc4C)n3)nc2)CC1 [Compound 266, 1-(4-(6-(5-(3-methyl-pyridin-2-ylamino)-1,2,4-thiadiazol-3-yl)pyridin-3-yloxy)piperidin-1-yl)ethanone]	5.30 to 6.30
CC(C)Oc1cnc(-c2nsc(Nc3ncccc3C(F)(F)F)n2)cc1C(N)=O [Compound 220, 5-isopropoxy-2-(5-(3-(trifluoromethyl)pyridin-2-ylamino)-1,2,4-thiadiazol-3-yl)isonico-tinamide]	5.30 to 6.30
CC(C)Oc1cnc(-c2nsc(Nc3ncccc3C(=O)N(C)C)n2)cc1C(F)F [Compound 260, 2-(3-(4-(difluoro-methyl)-5-isopropoxy-pyridin-2-yl)-1,2,4-thiadiazol-5-ylamino)-N,N-dimethyl-nicotinamide]	6.30 to 6.70
Cc1cccnc1Nc1nc(-c2ccc(OC3CCN(C(=O)C(C)C)CC3)cn2)ns1 [Compound 265, 2-methyl-1-(4-(6-(5-(3-methylpyridin-2-ylamino)-1,2,4-thiadiazol-3-yl)pyridin-3-yloxy)piperidin-1-yl)propan-1-one]	5.30 to 6.30
FC(F)(F)c1ccc(Nc2nc(-c3cc(OC4CCCCC4)ccn3)ns2)nc1 [Compound 213, 3-(4-(cyclo-hexyloxy)pyridin-2-yl)-N-(5-(trifluoromethyl)pyridin-2-yl)-1,2,4-thiadiazol-5-amine]	> 6.70
CC(C)Oc1ccc(-c2nsc(Nc3ncccc3C(=O)N(C)C)n2)nc1 [Compound 188, 2-(3-(5-isoprop-oxypyridin-2-yl)-1,2,4-thiadiazol-5-ylamino)-N,N-dimethyl nicotinamide]	5.30 to 6.30
CC(C)Oc1ccc(-c2nsc(Nc3ncccc3N(C)C)n2)nn1 [Compound 155, N2-(3-(6-isopropoxy-pyridazin-3-yl)-1,2,4-thiadiazol-5-yl)-N3,N3-dimethyl-pyridine-2,3-diamine]	5.30 to 6.30
CCOc1cnc(-c2nsc(Nc3ncccc3N(C)C(C)=O)n2)cc1C(F)(F)F [Compound 228, N-(2-(3-(5-ethoxy-4-(trifluoro-methyl)pyridin-2-yl)-1,2,4-thiadiazol-5-ylamino)pyridin-3-yl)-N-methyl-acetamide]	5.30 to 6.30
CC(C)c1cccnc1Nc1nc(-c2ccc(OC3CC3)cn2)ns1 [Compound 74, 3-(5-cyclopropoxy-pyridin-2-yl)-N-(3-isopropylpyridin-2-yl)-1,2,4-thiadiazol-5-amine]	> 6.70
COc1cccnc1-c1nsc(Nc2cc(C(F)(F)F)c(C(C)C)cn2)n1 [Compound 210, N-(5-isopropyl-4-(trifluoromethyl)pyridin-2-yl)-3-(3-methoxy-pyridin-2-yl)-1,2,4-thiadiazol-5-amine]	6.30 to 6.70
CC(C)Oc1ccc(-c2nsc(Nc3ncccc3C(C)C)n2)nc1 [Compound 115, 3-(5-isopropoxy-pyridin-2-yl)-N-(3-isopropyl-pyridin-2-yl)-1,2,4-thiadiazol-5-amine]	> 6.70
Cc1cccnc1Nc1nc(-c2ccc(OC(F)(F)F)cn2)ns1 [Compound 52, N-(3-methyl-pyridin-2-yl)-3-(5-(trifluoro-methoxy)pyridin-2-yl)-1,2,4-thiadiazol-5-amine]	5.30 to 6.30
COc1cccnc1Nc1nc(-c2cc(C(F)(F)F)c(OC(C)C)cn2)ns1 [Compound 167, 3-(5-isopropoxy-4-(trifluoromethyl)pyridin-2-yl)-N-(3-methoxypyridin-2-yl)-1,2,4-thiadiazol-5-amine]	5.30 to 6.30
CC(=O)N(C)c1cccnc1Nc1nc(-c2ccc(OC(C)C)cn2)ns1 [Compound 157, N-(2-(3-(5-isopropoxy-pyridin-2-yl)-1,2,4-thiadiazol-5-ylamino)pyridin-3-yl)-N-methyl-acetamide]	5.30 to 6.30
CN(C)c1cccnc1Nc1nc(-c2ccc(F)cn2)ns1 [Compound 121, N2-(3-(5-fluoro-pyridin-2-yl)-1,2,4-thiadiazol-5-yl)-N3,N3-dimethylpyridine-2,3-diamine]	5.30 to 6.30

SMILES	pIC50
Cc1cccnc1Nc1nc(-c2ncc(OC3CC3)cc2C(F)(F)F)ns1 [Compound 93, 3-(5-cyclo-propoxy-3-(trifluoromethyl)pyridin-2-yl)-N-(3-methyl-pyridin-2-yl)-1,2,4-thiadiazol-5-amine]	5.30 to 6.30
CC(C)Oc1ccc(-c2nsc(Nc3ncccc3N3CCCC3)n2)nc1 [Compound 116, 3-(5-isopropoxy-pyridin-2-yl)-N-(3-(pyrrolidin-1-yl)pyridin-2-yl)-1,2,4-thiadiazol-5-amine]	5.30 to 6.30
CC(C)Oc1cnc(-c2nsc(Nc3ncccc3C(C)C)n2)cc1C(F)(F)F [Compound 168, 3-(5-isoprop-oxy-4-(trifluoromethyl)pyridin-2-yl)-N-(3-isopropyl-pyridin-2-yl)-1,2,4-thiadiazol-5-amine]	6.30 to 6.70
Cc1cccnc1Nc1nc(-c2ccc(OC3CCN(C4CC4)CC3)cn2)ns1 [Compound 45, 3-(5-(1-cyclo-propylpiperidin-4-yloxy)pyridin-2-yl)-N-(3-methylpyridin-2-yl)-1,2,4-thiadiazol-5-amine]	5.30 to 6.30
CC(C)c1cnc(Nc2nc(-c3ncccc3OC3CC3)ns2)cc1C(F)(F)F [Compound 97, 3-(3-cycloprop-oxypyridin-2-yl)-N-(5-isopropyl-4-(trifluoromethyl)pyridin-2-yl)-1,2,4-thiadiazol-5-amine]	> 6.70
CNc1cccnc1Nc1nc(-c2cc(C)ccn2)ns1 [Compound 23, N3-methyl-N2-(3-(4-methylpyridin-2-yl)-1,2,4-thiadiazol-5-yl) pyridine-2,3-diamine]	6.30 to 6.70
COc1ccc(-c2nnc(Nc3cc(OC(C)C)ccn3)[nH]2)nc1 [Compound 257, 4-isopropoxy-N-(5-(5-methoxy-pyridin-2-yl)-4H-1,2,4-triazol-3-yl)pyridin-2-amine]	5.30 to 6.30
CN1CCC(Oc2ccnc(-c3nsc(Nc4ncccc4C(F)(F)F)n3)c2)CC1 [Compound 62, 3-(4-(1-methyl-piperidin-4-yloxy)pyridin-2-yl)-N-(3-(trifluoromethyl)pyridin-2-yl)-1,2,4-thiadiazol-5-amine]	5.30 to 6.30
Cc1ccnc(-c2noc(Nc3ncccc3F)n2)c1 [Compound 14, N-(3-fluoro-pyridin-2-yl)-3-(4-methylpyridin-2-yl)-1,2,4-oxadiazol-5-amine]	5.30 to 6.30
COc1cc(C(C)C)cnc1Nc1nc(-c2ccc(OC(C)C)cn2)ns1 [Compound 166, 3-(5-isopropoxy-pyridin-2-yl)-N-(5-isopropyl-3-methoxypyridin-2-yl)-1,2,4-thiadiazol-5-amine]	5.30 to 6.30
Cc1cccnc1Nc1nc(-c2ccc(OC(C)C)cn2)ns1 [Compound 19, 3-(5-isopropoxy-pyridin-2-yl)-N-(3-methyl-pyridin-2-yl)-1,2,4-thiadiazol-5-amine]	> 6.70
CC(C)Oc1cnc(-c2nsc(Nc3ncccc3N(C)C(=O)C3CC3)n2)cc1C(F)(F)F [Compound 186, N-(2-(3-(5-isopropoxy-4-(trifluoro-methyl)pyridin-2-yl)-1,2,4-thiadiazol-5-ylamino)pyridin-3-yl)-N-methylcyclo-propanecarbox-amide]	6.30 to 6.70
CC(C)Oc1ccc(-c2nsc(Nc3ncccc3N(C)C(=O)C3CC3)n2)nc1 [Compound 170, N-(2-(3-(5-isopropoxy-pyridin-2-yl)-1,2,4-thiadiazol-5-ylamino)pyridin-3-yl)-N-methylcyclo-propanecarbox-amide]	5.30 to 6.30
CC(C)Oc1ccc(-c2nsc(Nc3ncccc3C(=O)N(C)C3CC3)n2)nc1 [Compound 262, N-cyclo-propyl-2-(3-(5-isopropoxy-pyridin-2-yl)-1,2,4-thiadiazol-5-ylamino)-N-methyl-nicotinamide]	6.30 to 6.70
CC(C)Oc1ccc(-c2nsc(Nc3nccnc3N(C)C)n2)nc1 [Compound 144, N2-(3-(5-isoprop-oxypyridin-2-yl)-1,2,4-thiadiazol-5-yl)-N3,N3-dimethyl-pyrazine-2,3-diamine]	6.30 to 6.70
CC(C)Oc1cnc(-c2nsc(Nc3ncccc3N(C)C)n2)cc1C(F)(F)F [Compound 156, N2-(3-(5-isopropoxy-4-(trifluoromethyl)pyridin-2-yl)-1,2,4-thiadiazol-5-yl)-N3,N3-dimethyl-pyridine-2,3-diamine]	6.30 to 6.70
Cc1cccnc1Nc1nc(-c2cc(OC3CC3)ccn2)ns1 [Compound 65, 3-(4-cycloprop-oxypyridin-2-yl)-N-(3-methyl-pyridin-2-yl)-1,2,4-thiadiazol-5-amine]	> 6.70
Cc1cnc(Nc2nc(-c3cc(C(=O)N(C)C)c(OC(C)C)cn3)ns2)c(C(F)(F)F)c1 [Compound 254, 5-isopropoxy-N,N-dimethyl-2-(5-(5-methyl-3-(trifluoromethyl)pyridin-2-ylamino)-1,2,4-thiadiazol-3-yl)isonico-tinamide]	5.30 to 6.30
